Read-outs that look alike come from different tables or passages of the source.
Tests used:
[1] = target: T1, CB2 receptor (Homo sapiens, UniProt P34972); test: Calcium mobilization assay, antagonist mode (CP55940 challenge), CHO expressing CB2; format: cell-based; conditions: for SI, selectivity index for the CB2, SI = IC50(CB1)/IC50(CB2): antagonist mode
T1 construct: expressed in transfected cells
Experimental: (§1) Chinese hamster ovarian (CHO) cells collected from the American Type Culture Collection were maintained in Ham’s F-12K (Kaighn’s) supplemented with 100 mg/L streptomycin, 100 mg/L penicillin, and 10% fetal bovine serum (FBS) in a humidified atmosphere of 5% CO2 at 37 °C. CHO cells were co-transfected with plasmids encoding CB1 or CB2 and Gα16 by electroporation. To establish stable cell lines, transfected cells were seeded on 10 cm dishes with 40 μg/mL blasticidin and 1 mg/mL G418 in culture medium after 24 h. The selection medium was substituted once every 3 days until colonies formed. A solitary colony was obtained, propagated, and assessed using a calcium mobilization assay to verify the function and expression of the transfected genes.
(§2) 3 × 10^4 cells/well were employed to seed cells onto 96-well plates, which were subsequently incubated throughout the night. Cells were then treated with 2 μM Fluo-4 AM in HBSS (0.3 mM Na2HPO4, 5.4 mM KCl, 4.2 mM NaHCO3, 0.4 mM KH2PO4, 0.5 mM MgCl2, 1.3 mM CaCl2, 137 mM NaCl, 0.6 mM MgSO4, 250 μM sulfinpyrazone, and 5.6 mM D-glucose, pH 7.4) for 45 min at 37 °C. […] Meanwhile, the change of intracellular calcium was measured at an excitation wavelength of 525 and 485 nm. For antagonist mode, the extra dye was washed out and 50 μL of HBSS with test compounds, DMSO (negative control), or AM630 (positive control) was introduced. […] The change of intracellular calcium was captured at an excitation wavelength of 525 and 485 nm. To be noticed, each experiment has been independently replicated three times, with three repetitions and eight gradients each time.
(§3) The collected data were processed with GraphPad Prism software (GraphPad). […] Means ± SEM were computed utilizing this software. The analyses were evaluated by the Student t test. When the p value is smaller than 0.05, the result is statistically significant.

[2] = target: T2, CB1 receptor (Homo sapiens, UniProt P21554); test: Calcium mobilization assay, agonist mode, CHO expressing CB1 and Gα16; format: cell-based; conditions: agonist activity, CHO expressing CB1, mean ± SEM; read-out: CB1 EC50
T2 sequence (P21554 whole entry): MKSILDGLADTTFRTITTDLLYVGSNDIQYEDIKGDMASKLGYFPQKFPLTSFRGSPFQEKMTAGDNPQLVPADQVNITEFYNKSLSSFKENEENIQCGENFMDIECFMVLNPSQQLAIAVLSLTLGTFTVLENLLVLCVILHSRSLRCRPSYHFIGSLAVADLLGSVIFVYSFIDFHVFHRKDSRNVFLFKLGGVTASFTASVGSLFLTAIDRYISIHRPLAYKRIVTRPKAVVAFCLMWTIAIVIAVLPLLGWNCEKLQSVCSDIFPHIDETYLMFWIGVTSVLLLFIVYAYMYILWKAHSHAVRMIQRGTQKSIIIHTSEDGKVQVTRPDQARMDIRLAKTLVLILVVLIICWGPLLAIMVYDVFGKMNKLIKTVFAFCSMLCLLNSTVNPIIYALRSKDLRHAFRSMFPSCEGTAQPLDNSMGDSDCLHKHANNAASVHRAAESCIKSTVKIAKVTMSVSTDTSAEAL
Experimental: as §1
(§4) 3 × 10^4 cells/well were employed to seed cells onto 96-well plates, which were subsequently incubated throughout the night. […] For antagonist mode, the extra dye was washed out and 50 μL of HBSS with test compounds, DMSO (negative control), or AM630 (positive control) was introduced. […] To be noticed, each experiment has been independently replicated three times, with three repetitions and eight gradients each time.
as §3

[3] = target: T1, CB2 receptor; test: Calcium mobilization assay, agonist mode, CHO expressing CB2 and Gα16; format: cell-based; conditions: agonist activity, CHO expressing CB2, three independent assays, mean ± SEM; read-out: CB2 EC50
Experimental: as §1, §4, §3

[4] = target: T2, CB1 receptor; test: Calcium mobilization assay, antagonist mode (CP55940 challenge), CHO expressing CB1; format: cell-based
Experimental: as §1, §2, §3

[5] = target: T1, CB2 receptor; conditions: representative ligands for active CB2 (Table S7); ref SI refs 3, 6, 7, 10, 11; read-out: Experimental Ki, Active CB2; cited from earlier work
[6] = CB2 IC50, antagonist activity, CHO expressing CB2, three independent assays, mean ± SEM
[7] = CB2 antagonist(μM) replicate 1, single independent experiment, replicate 1
[8] = CB2 antagonist(μM) replicate 2, single independent experiment, replicate 2
[9] = CB2 antagonist(μM) replicate3, single independent experiment, replicate 3
[10] = antagonist activity, CHO expressing CB2, three independent assays, mean ± SEM, read-out: CB2 IC50
[11] = single independent experiment, replicate 1, read-out: CB2 antagonist(μM) replicate 1
[12] = single independent experiment, replicate 2, read-out: CB2 antagonist(μM) replicate 2
[13] = single independent experiment, replicate 3, read-out: CB2 antagonist(μM) replicate3
[14] = antagonist activity, CHO expressing CB1, read-out: CB1 IC50

T1 sequence (P34972 whole entry): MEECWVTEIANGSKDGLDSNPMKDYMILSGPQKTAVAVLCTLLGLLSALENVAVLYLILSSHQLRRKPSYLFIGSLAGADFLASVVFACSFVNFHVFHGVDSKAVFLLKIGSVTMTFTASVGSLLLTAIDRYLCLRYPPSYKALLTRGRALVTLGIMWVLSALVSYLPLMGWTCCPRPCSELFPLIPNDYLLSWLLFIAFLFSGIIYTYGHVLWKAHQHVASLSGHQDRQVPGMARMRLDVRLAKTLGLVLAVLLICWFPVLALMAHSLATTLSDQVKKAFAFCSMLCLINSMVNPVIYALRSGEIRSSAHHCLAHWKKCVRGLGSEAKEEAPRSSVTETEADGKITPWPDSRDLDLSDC

Row | Compound | IC50 [1, 6] [µM] | IC50 [1, 7] [µM] | IC50 [1, 8] [µM] | IC50 [1, 9] [µM] | IC50 [1, 10] [µM] | SI, selectivity index for the CB2, SI = IC50(CB1)/IC50(CB2) [1] | IC50 [1, 11] [µM] | IC50 [1, 12] [µM] | IC50 [1, 13] [µM] | IC50 [4, 14] [nM] | other results
1 | COc1ccc(C(=O)c2c(C)n(CCN3CCOCC3)c3cc(I)ccc23)cc1 [AM630, reference compound] | 0.34 ± 0.1 | 0.153 | 0.319 | 0.55 | – | – | – | – | – | – | –
2 | COc1ccc(/C=C2\SC(=O)N(CC(C)C)C2=O)cc1OC(=O)C12CC3CC(CC(C3)C1)C2 [Compound 37, 5-((3-Isobutyl-2,4-dioxothiazolidin-5-ylidene)methyl)-2-methoxyphenyl (3r, 5r,7r)-adamantane-1-carboxylate] | – | – | – | – | – | – | – | – | – | – | EC50 [2]: > 10000 nM; EC50 [3]: > 10000 nM
3 | COc1ccc(C=C2SC(=O)N(C(C)C)C2=O)cc1OC(=O)CCCCl [Compound 38, 5-((3-Isopropyl-2,4-dioxothiazolidin-5-ylidene)methyl)-2-methoxyphenyl 4-Chlorobutanoate] | – | – | – | – | 0.4 ± 0.16 | >25 | 0.715 | 0.256 | 0.224 | > 10000 | –
4 | CCCS(=O)(=O)Oc1cc(C=C2SC(=O)N(C(C)C)C2=O)ccc1OC [Compound 39, 5-((3-Isopropyl-2,4-dioxothiazolidin-5-ylidene)methyl)-2-methoxyphenyl Propane-1-sulfonate] | – | – | – | – | 0.33 ± 0.09 | 23 | 0.445 | 0.115 | 0.44 | > 10000 | –
5 | CCCS(=O)(=O)Oc1cc(C=C2SC(=O)N(CC(C)C)C2=O)ccc1OC [Compound 40, 5-((3-Isobutyl-2,4-dioxothiazolidin-5-ylidene)methyl)-2-methoxyphenyl Propane-1-sulfonate] | 2.99 ± 1.42 | 2.64 | 5.6 | 0.728 | – | > 3 | – | – | – | – | IC50 [4]: > 10000 nM
6 | CCCCCn1cc(C(=O)C2C(C)(C)C2(C)C)c2ccccc21 [UR-144] | – | – | – | – | – | – | – | – | – | – | Ki [5]: 1.8 nM
